Reference: article PMC12067741, “Inhibition of SOD1 trimerization is a novel drug target for ALS disease” (Translational Neurodegeneration, 2025)
Read-outs that look alike come from different tables or passages of the source.

How the values were obtained:
[1] = target: CYP 2D6 (Homo sapiens, UniProt P10635)
Text: (§1) Fig. S8. Preclinical data of PRG-A-04 a Plasma protein binding b CYP inhibition(direct) […]
(§2) d Mouse Brain Tissue penetration
(§3) For the convenience of calculation, […]

[2] = target: CYP2C19 (Homo sapiens, UniProt P33261)
Text: as §1, §2, §3

[3] = tested on: plasma proteins
Text: as §1, §2, §3

[4] = target: CYP 2C9 (Homo sapiens, UniProt P11712)
Text: as §1, §2, §3

[5] = target: CYP 2C8 (Homo sapiens, UniProt P10632)
Text: as §1, §2, §3

[6] = target: CYP 2B6 (Homo sapiens, UniProt P20813)
Text: as §1, §2, §3

[7] = target: CYP 1A2 (Homo sapiens, UniProt P05177); test: CYP inhibition (direct); type: in vitro ADME; details: CYP 1A2, direct inhibition
Text: as §1, §2, §3

[8] = tested on: SOD1^G93A−Tg mice; test: Efficacy of feeding combined with i.p. injection in SOD1G93A-Tg ALS mice; type: in vivo, mouse; details: daily feeding from 7 weeks plus i.p. twice weekly from 11 weeks; vehicle about 80%
Description: Age-matched WT mice were tested as positive control. […] Mouse movement was recorded.
Meier survival curve of SOD1G93A-Tg ALS mouse model.
Lifespan of PRG-A-01 data was collected from
SOD1G93A-Tg ALS mouse model.

[9] = tested on: misfolded MT-SOD1; test: Dot blot with misfolded SOD1-specific antibody; type: cell-based; details: 24 h treatment
Description: To detect misfolded SOD1 expression, cells transfected with SOD1 vectors were treated with PRG-A-04 for 24 h. After incubation, cells were lysed with […] NN buffer (50 mmol/L Tris–Cl, pH 7.5, 150 mmol/L NaCl, 0.3% NP-40), and then cell lysates were immobilized on nitrocellulose membrane using the Bio-Dot SF Microfiltration apparatus (Bio-Rad Laboratories, Hercules, CA). The membrane was washed with TBS and blocked by 5% BSA to remove background for 1 h. After blocking, the membrane was incubated with antibody for misfolded SOD1 (1:2000) or actin (1:10,000 in 1% skim milk containing TBST) for 30 min, then reacted with secondary antibody (goat anti-mouse IgG-horseradish peroxidase, 1:50,000 in 1% skim milk blocking buffer) for 30 min. Proteins were detected with ECL and X-ray film exposure. Actin was used as the loading control.

[10] = Plasma stability; type: in vitro ADME; details: CD-1 mouse plasma, after 120 min of incubation
[11] = BBB-PAMPA (parallel artificial membrane permeability assay); details: PAMPA, 4 hour, 10 µM
Text: (§4) Next, we checked the basic in vitro ADME test including pharmacokinetics, plasma protein binding, CYP (Cytochrome P450) inhibition, metabolic stability and blood–brain barrier (BBB) permeability. […] We also plan to test safety panel assay in the future to obtain safety data for the drug.
Fig. S8. […]

[12] = Plasma stability; type: in vitro ADME; details: human plasma, after 120 min of incubation
[13] = Metabolic stability in liver microsomes; type: in vitro ADME; details: SD rat liver microsomes
[14] = mouse, in vivo, po, 20 mg/kg
Text: as §4, §1, §2, §3

[15] = tested on: MT-SOD1 recombinant protein; test: In vitro oligomerization of recombinant GST-SOD1 (non-denaturing); type: biochemical; details: GST-SOD1 4 μg/mL, PRG-A-04 10 μmol/L, 30 min, room temperature
Description: For detecting the oligomerization assay promoted by mutant-type (MT)-SOD1 recombinant proteins in vitro, GST-SOD1 recombinant protein (4 μg/mL) was incubated with PRG-A-04 (10 μmol/L) for 30 min at room temperature in PBS and the samples were mixed with non-denaturing sample buffer. Those were separated in SDS-PAGE gel without boiling.

Chain of CYP 1A2 (P05177 whole entry): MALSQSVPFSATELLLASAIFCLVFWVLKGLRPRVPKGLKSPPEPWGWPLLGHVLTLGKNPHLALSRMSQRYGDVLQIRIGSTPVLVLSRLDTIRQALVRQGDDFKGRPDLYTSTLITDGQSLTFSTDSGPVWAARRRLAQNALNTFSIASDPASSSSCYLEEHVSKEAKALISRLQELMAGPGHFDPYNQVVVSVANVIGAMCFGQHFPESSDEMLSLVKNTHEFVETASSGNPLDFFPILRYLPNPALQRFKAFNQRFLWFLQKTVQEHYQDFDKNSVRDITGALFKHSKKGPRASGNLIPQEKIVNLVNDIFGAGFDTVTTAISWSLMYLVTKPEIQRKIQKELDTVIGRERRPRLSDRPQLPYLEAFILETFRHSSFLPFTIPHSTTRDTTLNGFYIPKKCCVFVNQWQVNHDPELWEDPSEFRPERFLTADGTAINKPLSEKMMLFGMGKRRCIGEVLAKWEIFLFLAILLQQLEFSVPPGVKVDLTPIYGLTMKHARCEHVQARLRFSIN
Chain of CYP2C19 (P33261 whole entry): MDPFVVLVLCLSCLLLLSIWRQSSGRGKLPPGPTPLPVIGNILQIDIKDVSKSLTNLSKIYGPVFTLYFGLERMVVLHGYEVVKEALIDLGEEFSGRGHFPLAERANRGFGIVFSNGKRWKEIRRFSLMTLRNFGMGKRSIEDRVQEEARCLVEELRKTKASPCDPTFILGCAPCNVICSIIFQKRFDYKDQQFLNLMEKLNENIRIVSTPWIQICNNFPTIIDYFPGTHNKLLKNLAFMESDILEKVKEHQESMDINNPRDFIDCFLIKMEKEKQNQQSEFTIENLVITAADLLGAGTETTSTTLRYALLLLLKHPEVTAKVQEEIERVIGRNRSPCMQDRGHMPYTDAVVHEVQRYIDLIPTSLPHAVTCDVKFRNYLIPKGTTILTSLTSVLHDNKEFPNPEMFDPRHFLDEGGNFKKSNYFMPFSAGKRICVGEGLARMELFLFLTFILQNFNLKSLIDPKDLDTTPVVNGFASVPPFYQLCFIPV
Chain of CYP 2C8 (P10632 whole entry): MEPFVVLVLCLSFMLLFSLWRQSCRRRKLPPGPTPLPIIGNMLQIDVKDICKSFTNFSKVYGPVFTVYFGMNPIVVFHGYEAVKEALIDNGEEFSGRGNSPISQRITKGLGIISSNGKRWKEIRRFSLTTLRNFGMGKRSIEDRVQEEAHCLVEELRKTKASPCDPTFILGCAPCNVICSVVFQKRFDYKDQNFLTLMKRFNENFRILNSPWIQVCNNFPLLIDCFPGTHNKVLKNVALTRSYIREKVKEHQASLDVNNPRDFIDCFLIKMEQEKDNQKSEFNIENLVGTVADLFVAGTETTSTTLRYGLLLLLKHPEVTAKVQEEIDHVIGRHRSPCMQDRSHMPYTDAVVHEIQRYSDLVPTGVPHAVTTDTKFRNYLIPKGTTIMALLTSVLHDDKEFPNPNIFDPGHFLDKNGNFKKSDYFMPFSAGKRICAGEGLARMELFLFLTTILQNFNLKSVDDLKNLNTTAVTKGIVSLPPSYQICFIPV
Chain of CYP 2D6 (P10635 whole entry): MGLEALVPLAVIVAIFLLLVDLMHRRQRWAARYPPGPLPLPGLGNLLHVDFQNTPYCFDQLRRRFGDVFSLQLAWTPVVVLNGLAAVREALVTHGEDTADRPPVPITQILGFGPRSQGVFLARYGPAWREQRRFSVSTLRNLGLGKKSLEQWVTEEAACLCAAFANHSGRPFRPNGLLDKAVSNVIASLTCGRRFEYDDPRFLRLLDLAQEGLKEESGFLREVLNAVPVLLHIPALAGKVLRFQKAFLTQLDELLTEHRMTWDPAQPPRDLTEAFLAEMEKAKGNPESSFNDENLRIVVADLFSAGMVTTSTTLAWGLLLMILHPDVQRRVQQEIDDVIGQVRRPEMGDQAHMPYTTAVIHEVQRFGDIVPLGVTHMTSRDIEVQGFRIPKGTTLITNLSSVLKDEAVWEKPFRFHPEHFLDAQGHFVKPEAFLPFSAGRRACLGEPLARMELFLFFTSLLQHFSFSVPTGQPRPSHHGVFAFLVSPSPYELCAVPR
Chain of CYP 2B6 (P20813 whole entry): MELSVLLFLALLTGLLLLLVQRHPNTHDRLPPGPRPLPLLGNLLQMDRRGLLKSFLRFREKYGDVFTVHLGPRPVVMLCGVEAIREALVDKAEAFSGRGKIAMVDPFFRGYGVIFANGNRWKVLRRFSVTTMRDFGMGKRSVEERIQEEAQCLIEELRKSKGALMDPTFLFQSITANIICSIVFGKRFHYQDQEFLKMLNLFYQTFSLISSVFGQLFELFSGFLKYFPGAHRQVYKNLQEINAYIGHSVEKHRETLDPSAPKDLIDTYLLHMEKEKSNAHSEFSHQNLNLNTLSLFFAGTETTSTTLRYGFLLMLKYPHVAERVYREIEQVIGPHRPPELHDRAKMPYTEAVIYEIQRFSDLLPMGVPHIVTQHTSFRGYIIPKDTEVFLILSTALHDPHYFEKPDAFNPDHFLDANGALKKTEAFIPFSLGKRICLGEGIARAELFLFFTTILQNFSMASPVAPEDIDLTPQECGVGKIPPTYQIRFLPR
Chain of CYP 2C9 (P11712 whole entry): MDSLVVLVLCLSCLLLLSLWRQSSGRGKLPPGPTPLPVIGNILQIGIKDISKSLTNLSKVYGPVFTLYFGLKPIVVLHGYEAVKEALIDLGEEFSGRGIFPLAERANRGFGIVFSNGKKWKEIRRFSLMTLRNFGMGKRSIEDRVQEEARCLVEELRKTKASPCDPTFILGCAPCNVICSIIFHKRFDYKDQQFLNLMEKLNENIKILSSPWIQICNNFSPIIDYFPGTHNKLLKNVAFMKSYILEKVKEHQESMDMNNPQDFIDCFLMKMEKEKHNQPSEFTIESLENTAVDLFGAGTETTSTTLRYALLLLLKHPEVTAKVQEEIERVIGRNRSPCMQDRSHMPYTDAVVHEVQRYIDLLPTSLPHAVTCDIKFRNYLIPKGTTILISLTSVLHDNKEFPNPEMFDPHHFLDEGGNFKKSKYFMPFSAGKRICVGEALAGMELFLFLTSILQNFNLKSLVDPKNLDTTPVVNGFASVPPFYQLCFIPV

Compound: COc1cc(C=CCOC2Cc3cc4ccc(=O)oc4cc3OC2(C)C)ccc1[N+](=O)[O-] (stereo not drawn) [PRG-A-04]
- IC50 [1]: > 10 µM
- IC50 [2]: 4.75 µM
- % Bound ([3]; Dog plasma, concentration 0.2 uM): > 99.93%
- % Bound ([3]; Dog plasma, concentration 2 uM): 99.95%
- % Bound ([3]; Dog plasma, concentration 10 uM): 99.92%
- % Bound ([3]; Human plasma, concentration 0.2 uM): > 99.92%
- % Bound ([3]; Human plasma, concentration 2 uM): 99.97%
- % Bound ([3]; Human plasma, concentration 10 uM): 99.97%
- % Bound ([3]; Monkey plasma, concentration 0.2 uM): > 99.94%
- % Bound ([3]; Monkey plasma, concentration 2 uM): 99.93%
- % Bound ([3]; Monkey plasma, concentration 10 uM): 99.89%
- % Bound ([3]; Mouse plasma, concentration 0.2 uM): 99.91%
- % Bound ([3]; Mouse plasma, concentration 2 uM): 99.92%
- % Bound ([3]; Mouse plasma, concentration 10 uM): 99.87%
- % Bound ([3]; Rat plasma, concentration 0.2 uM): 99.9%
- % Bound ([3]; Rat plasma, concentration 2 uM): 99.91%
- % Bound ([3]; Rat plasma, concentration 10 uM): 99.86%
- IC50 [4]: > 10 µM
- IC50 [5]: > 10 µM
- IC50 [6]: > 10 µM
- IC50 [7]: > 10 µM
- reduction of motility (rotarod latency) at 18 weeks [8]: 50%
- effect on misfolding SOD1 [9]: reduction in misfolding SOD1
- stability in plasma [10]: stable
- Mean Pe [11]: 0.418 ×10⁻⁶ cm/s
- stability in plasma [12]: stable
- extent of metabolism in liver microsomes [13]: highly metabolized
- Brain/Plasma Ratio, M01+3n ([14]; 0.5 h): 2.18
- Brain/Plasma Ratio, M02+3n ([14]; 0.5 h): 1.54
- Brain/Plasma Ratio, M03+3n ([14]; 0.5 h): 1.90
- Brain/Plasma Ratio, Mean ([14]; 0.5 h): 1.87
- Brain/Plasma Ratio, M01+3n ([14]; 1 h): 2.29
- Brain/Plasma Ratio, M02+3n ([14]; 1 h): 2.02
- Brain/Plasma Ratio, M03+3n ([14]; 1 h): 2.02
- Brain/Plasma Ratio, M01+3n ([14]; 12 h): 1.92
- Brain/Plasma Ratio, M02+3n ([14]; 12 h): 1.87
- Brain/Plasma Ratio, M03+3n ([14]; 12 h): 1.71
- Brain/Plasma Ratio, Mean ([14]; 12 h): 1.84
- effect on oligomerization of recombinant MT-SOD1 in vitro [15]: inhibited the oligomerizing or aggregation property of MT-SOD1
